Laboratory results published in patent US12378186B2, “Inhibitors of meprin α and β” (VIVORYON THERAPEUTICS N.V., priority 2016, dated 2025).
Like-named read-outs stand apart in the source and are kept apart here.

Legend:
hMeprin β = target: T1, hMeprin β (Homo sapiens, UniProt Q16820); experiment: Enzymatic assay, cleavage of internally quenched peptide substrate, hMeprin β; type: biochemical
T1 sequence (Q16820 62-701): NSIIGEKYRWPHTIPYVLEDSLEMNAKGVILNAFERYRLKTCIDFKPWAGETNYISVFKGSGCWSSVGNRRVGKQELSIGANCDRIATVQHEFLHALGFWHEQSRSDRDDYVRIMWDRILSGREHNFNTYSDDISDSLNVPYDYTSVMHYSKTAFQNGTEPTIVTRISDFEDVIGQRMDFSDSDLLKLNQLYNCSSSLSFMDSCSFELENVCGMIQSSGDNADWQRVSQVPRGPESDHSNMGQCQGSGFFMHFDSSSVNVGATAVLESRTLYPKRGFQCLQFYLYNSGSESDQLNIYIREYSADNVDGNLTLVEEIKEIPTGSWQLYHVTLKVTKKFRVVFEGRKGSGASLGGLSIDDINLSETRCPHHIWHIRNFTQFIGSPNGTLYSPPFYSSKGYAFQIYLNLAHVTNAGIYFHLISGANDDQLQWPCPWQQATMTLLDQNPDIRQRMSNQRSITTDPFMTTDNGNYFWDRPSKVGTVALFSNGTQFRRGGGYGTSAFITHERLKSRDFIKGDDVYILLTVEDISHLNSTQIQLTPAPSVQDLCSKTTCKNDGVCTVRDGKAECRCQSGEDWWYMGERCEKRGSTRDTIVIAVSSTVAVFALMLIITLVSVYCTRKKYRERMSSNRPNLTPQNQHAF
Description: (§1) A typical assay of 250 μl total volume measured in black 96 well plates consisted of 100 μl buffer, 50 μl enzyme at a final concentration of 5e-8 M to 5e-9 M, 50 μl substrate (0.15 to 80 μM, in buffer, 0.5% DMSO) and 50 μl inhibitor solution (in buffer, 1% DMSO). In case of 125 μl assay volume (black 96 half area well plates) all volumes were cut in half. Enzymatic activity of ADAMs was measured in 384 well plates with 60 μl total assay volume consisting of 20 μl inhibitor, 20 μl buffer, 10 μl enzyme and 10 μl substrate.
(§2) Ki values were assessed combining 4 substrate concentrations (5-40 μM) with at least 5 inhibitor concentrations. […] Initial velocities were determined and converted into concentration units applying a standard curve obtained after complete conversion of different substrate concentrations under assay conditions. All measurements were performed using a fluorescence plate reader (FLUOstar OPTIMA, BMG Labtech) at 30° C. The kinetic parameters were determined at least in duplicates on separate days. The excitation/emission wavelength was 340/420 nm. The kinetic data was evaluated using GraFit software (version 7.0.3, Erithacus Software).
(§3) The following compounds according to the present invention were synthesized using the above general procedures. IC50 refers to the average IC50 values measured as described above, SD (IC50) refers to the standard deviation of the average IC50 values, Ki refers to the average K; values measured as described above, and SD (Ki) to the standard deviation of the average Ki values.

hMeprin α = target: T2, hMeprin α (Homo sapiens, UniProt Q16819); experiment: biochemical; type: biochemical; conditions: 30° C., 40 mM HEPES pH 7.4; for IC50: average IC50, 10 μM substrate, read-out: Meprin Alpha IC50; for Ki: average Ki, 4 substrate concentrations (5-40 μM), read-out: Meprin Alpha Ki
T2 sequence (Q16819 66-746): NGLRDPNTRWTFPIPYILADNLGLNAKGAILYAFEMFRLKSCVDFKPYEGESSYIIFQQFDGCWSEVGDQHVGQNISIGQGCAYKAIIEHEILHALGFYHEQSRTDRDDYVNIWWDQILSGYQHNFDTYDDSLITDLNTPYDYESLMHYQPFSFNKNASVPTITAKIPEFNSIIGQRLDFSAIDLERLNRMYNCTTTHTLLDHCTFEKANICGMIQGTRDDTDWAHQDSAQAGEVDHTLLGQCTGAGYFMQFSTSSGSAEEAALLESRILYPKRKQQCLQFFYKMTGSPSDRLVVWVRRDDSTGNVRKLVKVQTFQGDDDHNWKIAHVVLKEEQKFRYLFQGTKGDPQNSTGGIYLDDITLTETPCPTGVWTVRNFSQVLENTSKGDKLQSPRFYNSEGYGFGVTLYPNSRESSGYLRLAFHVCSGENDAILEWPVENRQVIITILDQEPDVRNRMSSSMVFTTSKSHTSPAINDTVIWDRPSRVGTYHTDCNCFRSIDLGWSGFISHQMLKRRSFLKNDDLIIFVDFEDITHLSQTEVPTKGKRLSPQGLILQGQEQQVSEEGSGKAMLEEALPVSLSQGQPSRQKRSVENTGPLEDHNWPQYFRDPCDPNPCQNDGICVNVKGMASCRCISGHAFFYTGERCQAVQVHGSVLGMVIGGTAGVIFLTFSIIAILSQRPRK
Description: as §1, §2, §3

[1] = average IC50, 10 μM substrate, 30° C., 40 mM Tris pH 8.0, read-out: Meprin Beta IC50

Row | Compound | IC50 (hMeprin β) [nM] | IC50 (hMeprin α) [nM] | Ki (hMeprin α) [nM] | Ki (hMeprin β) [nM] | IC50 (hMeprin β; [1]) [nM]
1 | NC(=O)c1cccc(CN(CC(=O)NO)Cc2cccc(C(N)=O)c2)c1 [Example 41, 3-[[(3-carbamoylphenyl)methyl-[2-(hydroxyamino)-2-oxo-ethyl]amino]methyl]benzamide] |  | 2900 | 852 |  | 13100
2 | COc1cccc(CN(CC(=O)NO)Cc2cccc(OC)c2)c1 [Example 5, 2-[bis[(3-Methoxyphenyl)methyl]amino]-ethanehydroxamic acid] | 25600 |  |  | 15700 | 
3 | C[C@H](NCc1cccc(C(=O)O)c1)C(=O)NO [Example 28, 3-[[[(1S)-2-(Hydroxyamino)-1-methyl-2-oxo-ethyl]amino]methyl]benzoic acid] |  | 16700 |  | 3100 | 4200
4 | O=C(CN(Cc1cccc(C(=O)O)c1)Cc1cccc(C(=O)O)c1)NO [Example 2, 3-[[(3-Carboxyphenyl)methyl-[2-(hydroxyamino)-2-oxo-ethyl]amino]methyl]benzoic acid] |  | 30900 | 10400 | 18 | 
5 | CCOC(=O)c1cccc(CN(CC(=O)NO)Cc2cccc(C(=O)OCC)c2)c1 [Example 54, ethyl 3-[[(3-ethoxycarbonylphenyl)methyl-[2-(hydroxyamino)-2-oxo-ethyl]amino]methyl]benzoate] |  | 7270 |  | 1760 | 94800
6 | O=C(CN(Cc1ccc(F)c(O)c1F)Cc1ccc(F)c(O)c1F)NO [Example 47, 2-[bis[(2,4-difluoro-3-hydroxy-phenyl)-methyl]amino]ethanehydroxamic acid] |  | 626 | 189 | 12 | 23
7 | N#Cc1cccc(CN(CC(=O)NO)Cc2cccc(C#N)c2)c1 [Example 40, 2-[bis[(3-cyanophenyl)methyl]amino]-ethanehydroxamic acid] |  | 1460 | 521 |  | 12000
8 | COc1c(F)ccc(CN(CC(=O)NO)Cc2ccc(F)c(OC)c2F)c1F [Example 58, 2-[bis[(2,4-difluoro-3-methoxy-phenyl)methyl]-amino]ethanehydroxamic acid] |  | 2830 | 726 |  | 18200
9 | O=C(O)C[C@H](NCc1cccc(C(=O)O)c1)C(=O)NO [Example 45, 3-[[[(1S)-1-(carboxymethyl)-2-(hydroxyamino)-2-oxo-ethyl]amino]methyl]benzoic acid] |  | 60400 |  | 644 | 1320
10 | O=C(O)c1cccc(CN2CCCC2C(=O)NO)c1 (stereo in doubt) [Example 12, 3-[[(2R)-2-(Hydroxycarbamoyl)pyrrolidin-1-yl]methyl]benzoic acid] | 31400 |  |  |  | 
11 | O=C(CN(Cc1ccc(-c2ccccc2)cc1)Cc1cccc(C(=O)O)c1)NO [Example 8, 3-[[[2-(Hydroxyamino)-2-oxo-ethyl]-[(4-biphenyl)methyl]amino]-methyl]benzoic acid] | 1440 |  |  | 1030 | 
12 | CCCOc1ccc(CN(CC(=O)NO)Cc2cccc(C(=O)O)c2)cc1 [Example 9, 3-[[[2-(Hydroxyamino)-2-oxo-ethyl]-[(4-propoxyphenyl)methyl]amino]-methyl]benzoic acid] | 2250 |  |  | 874 | 
13 | O=C(CNCc1cccc(C(=O)O)c1)NO [Example 3, 3-[[[2-(Hydroxyamino)-2-oxo-ethyl]amino]-methyl]benzoic acid] |  |  |  | 183 | 377
14 | COc1cccc(CN(CC(=O)NO)Cc2cccc(C(=O)O)c2)c1 [Example 14, 3-[[[2-(Hydroxyamino)-2-oxo-ethyl]-[(3-methoxyphenyl)methyl]amino]-methyl]benzoic acid] |  |  |  | 288 | 559
15 | COc1ccc(CN(CC(=O)NO)Cc2ccccc2C(=O)O)cc1 [Example 16, 2-[[[2-(Hydroxyamino)-2-oxo-ethyl]-[(4-methoxyphenyl)methyl]amino]-methyl]benzoic acid] | 22800 |  |  |  | 
16 | COc1ccc(CN(CC(=O)NO)Cc2ccc(OC)cc2)cc1 [Example 15, 2-[bis[(4-Methoxyphenyl)methyl]amino]ethane-hydroxamic acid] | 31800 |  |  |  | 
17 | O=C(O)c1cccc(CN2CCCC2C(=O)NO)c1 (stereo in doubt) [Example 13, 3-[[(2S)-2-(Hydroxycarbamoyl)pyrrolidin-1-yl]methyl]benzoic acid] | 41100 |  |  |  | 

More lines, main results first:

Row | IC50 (hMeprin β) [nM] | IC50 (hMeprin α) [nM] | Ki (hMeprin α) [nM] | Ki (hMeprin β) [nM] | Compound | IC50 (hMeprin β; [1]) [nM]
18 | 18700 | 881 | 332 |  | COc1c(F)ccc(CN(CCC(=O)NO)Cc2ccc(F)c(OC)c2F)c1F [Example 64, 3-[bis[(2,4-difluoro-3-methoxy-phenyl)methyl]-amino]propanehydroxamic acid] | 
19 | 516 | 6280 | 1740 | 152 | COC(=O)c1cccc(CN(CC(=O)NO)Cc2cccc(C(=O)O)c2)c1 [Example 43] | 
20 |  | 7880 | 3090 |  | O=C(CN(Cc1ccccc1)Cc1ccccc1)NO [Example 67, 2-(dibenzylamino) ethanehydroxamic acid] | 
21 | 33100 | 2340 | 696 |  | N#Cc1cccc(CN(CCC(=O)NO)Cc2cccc(C#N)c2)c1 [Example 70, 3-[bis[(3-cyanophenyl)methyl]amino]-propanehydroxamic acid] | 
22 |  |  | 104 | 8 | O=C(CN(Cc1ccc(Cl)c(O)c1F)Cc1ccc(Cl)c(O)c1F)NO [Example 52, 2-[bis[(4-chloro-2-fluoro-3-hydroxy-phenyl)-methyl]amino]ethanehydroxamic acid] | 
23 | 90000 | 19800 |  |  | COc1cc(CN(CCC(=O)NO)Cc2cc(OC)c(OC)c(OC)c2)cc(OC)c1OC [Example 66, 3-[bis[(3,4,5-trimethoxyphenyl)methyl]amino]-propanehydroxamic acid] | 
24 |  | 5660 | 1600 |  | N#Cc1ccc(CN(CC(=O)NO)Cc2ccc(C#N)cc2)cc1 [Example 55, 2-[bis[(4-cyanophenyl)methyl]amino]-ethanehydroxamic acid] | 
25 |  |  |  | 797 | O=C(CN(Cc1ccccc1)Cc1cccc(C(=O)O)c1)NO [Example 17] | 
26 |  |  | 1200 |  | N#Cc1ccc(CN(CCC(=O)NO)Cc2ccc(C#N)cc2)cc1 [Example 57, 3-[bis[(4-cyanophenyl)methyl]amino]-propanehydroxamic acid] | 
27 |  | 4980 | 1010 |  | COc1c(Cl)ccc(CN(CC(=O)NO)Cc2ccc(Cl)c(OC)c2F)c1F [Example 56, 2-[bis[(4-chloro-2-fluoro-3-methoxy-phenyl)-methyl]amino]ethanehydroxamic acid] | 
28 |  |  | 157 |  | COc1c(Cl)ccc(CN(CCC(=O)NO)Cc2ccc(Cl)c(OC)c2F)c1F [Example 65, 3-[bis[(4-chloro-2-fluoro-3-methoxy-phenyl)-methyl]amino]propanehydroxamic acid] | 
29 |  |  | 169 |  | O=C(CCN(Cc1ccc(Cl)cc1F)Cc1ccc(Cl)cc1F)NO [Example 62, 3-[bis[(4-chloro-2-fluoro-phenyl)methyl]-amino]propanehydroxamic acid] | 
